Assay results reported in patent US20240018124A1, “MODULATORS OF FPR1 AND METHODS OF USING THE SAME” (BIOFRONT LTD, priority 2021, published 2024).

How the values were obtained:
[1] = biological target: T1, FPR1 (Homo sapiens (Human), UniProt P21462); experiment: Cyclic adenosine monophosphate (cAMP) assay, CHO-K1 cells stably overexpressing hFPR1; type: cell-based; details: 2.5 μM Forskolin and 0.25 nM WKYMVm (FPR1 agonist)
Protocol: Cyclic Adenosine Monophosphate (cAMP) Assay
CHO-K1 cells stably overexpressing hFPR1 were plated into 384-well cell culture plates (2,000/well/5 μL) in 1× Stimulation Buffer (LANCE Ultra cAMP Kit, Perkin Elmer, TRF0263). 1 μL compound solution (prepared in ddH2O containing 0.2% DMSO) was added to each well. Plates were centrifuged briefly, and cells were incubated at 37° C. in 5% CO2 for 10 minutes. 4 μL solution containing 2.5 μM Forskolin and 0.25 nM WKYMVm (an FPR1 agonist, GLPBIO, GC15140) was then added to each well. 5 μL of Eu-cAMP solution (diluted to manufacturer's recommended working concentration in Detection Buffer, LANCE Ultra cAMP Kit) and 5 μL of ULight-anti-cAMP solution (diluted in Detection Buffer, LANCE Ultra cAMP Kit) were added to each well. Plates were centrifuged briefly, and cells were incubated at room temperature for 1 hour. Fluorescence emission at 665 nm and 620 nm from the samples was measured by a Perkin Elmer Envision instrument.
(§1) The effects of the compounds of the present disclosure on regulating the FPR1-mediated cell signaling were measured by monitoring the cellular cAMP level change and anti-reactive oxygen species formation in human neutrophils in the presence of an FPR1 agonist, respectively, as illustrated by the examples in Table 1.

[2] = biological target: T1, FPR1; experiment: Reactive oxygen species (ROS) assay in human neutrophils stimulated with fMLP; type: cell-based; details: human neutrophils from whole blood; fMLP (500 nM); DCFH-DA fluorescence; read-out: Anti-ROS IC50
Protocol: Reactive Oxygen Species (ROS) Assay
Human whole blood was collected, and ACK lysis buffer (ThermoFisher, A1049201) was added at 3 times the volume of the blood sample to lyse the red blood cells. The sample was incubated on ice for 15 minutes, and gently mixed twice during the incubation. 10 mL DPBS was then added, and the sample was centrifuged for 8 minutes. After removing the supernatant, remaining cells were resuspended in RPMI1640 medium containing 3% FBS and centrifuged again for 10 minutes. After removing the supernatant, cells were again resuspended in RPMI1640 medium containing 3% FBS. Neutrophil cell count was determined using FACS analysis by APC-labeled CD11b antibody (Biolegend, 101211) and FITC-labeled CD66b antibody (Biolegend, 305104). Neutrophils were then plated into 96-well plates (300,000/well). Plates were centrifuged and supernatant was removed. Cells were resuspended in 80 μL of compound solution (prepared in RPMI1640 medium containing 3% FBS), then incubated at room temperature for 15 minutes. 20 μL solution containing DCFH-DA (at the manufacturer's recommended concentration, Yeasen Biotechnology, 50101ES01) and fMLP (500 nM) was then added. Cells were incubated at 37° C. in 5% CO2 for 20 minutes away from light. After incubation, cells were placed on ice for 5 minutes, washed twice with 200 μL ice-cold DPBS, then resuspended in ice-cold DPBS at 100 µL/well. Fluorescence from each sample was measured at 485 nm excitation and 535 nm emission.
as §1

T1 sequence (P21462 whole entry): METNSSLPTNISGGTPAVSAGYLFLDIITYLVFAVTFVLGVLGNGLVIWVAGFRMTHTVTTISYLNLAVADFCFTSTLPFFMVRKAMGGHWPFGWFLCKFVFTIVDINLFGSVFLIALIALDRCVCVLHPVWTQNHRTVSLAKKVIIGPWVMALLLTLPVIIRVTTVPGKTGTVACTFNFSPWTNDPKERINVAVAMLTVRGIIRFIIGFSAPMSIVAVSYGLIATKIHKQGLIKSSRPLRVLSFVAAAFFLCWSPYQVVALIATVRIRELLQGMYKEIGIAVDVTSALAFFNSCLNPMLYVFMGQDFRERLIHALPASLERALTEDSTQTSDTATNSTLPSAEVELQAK

| Structure (SMILES) | IC50 [1] | IC50 [2] |
| --- | --- | --- |
| C[C@H](NC(=O)c1c(NS(=O)(=O)c2ccc(Cl)cc2)c(C2CCC3(CC2)OCCO3)nn1C)C(C)(C)C [Compound 23, (S)-4-((4-chlorophenyl)sulfonamido)-N-(3,3-dimethylbutan-2-yl)-1-methyl-3-(1,4-dioxaspiro[4.5]decan-8-yl)-1H-pyrazole-5-carboxamide] | 1000 to 25000 nM | 1000 to 25000 nM |
| C[C@H](NC(=O)c1c(NS(=O)(=O)c2ccc(C#N)cc2)c(-c2ccc(F)cc2)nn1C)C(C)(C)C [Compound 1, (S)-4-((4-cyanophenyl)sulfonamido)-N-(3,3-dimethylbutan-2-yl)-3-(4-fluorophenyl)-1-methyl-1H-pyrazole-5-carboxamide] | 100 to 1000 nM | 100 to 1000 nM |
| C[C@H](NC(=O)c1c(NS(=O)(=O)c2ccc(C#N)cc2)c(C2=CCC(F)(F)CC2)nn1C)C(C)(C)C [Compound 43, (S)-4-((4-cyanophenyl)sulfonamido)-3-(4,4-difluorocyclohex-1-en-1-yl)-N-(3,3-dimethylbutan-2-yl)-1-methyl-1H-pyrazole-5-carboxamide] | 1000 to 25000 nM | 100 to 1000 nM |
| CO[C@H]1CC[C@@H](c2nn(C)c(C(=O)N[C@@H](C)C(C)(C)C)c2NS(=O)(=O)c2ccc(C3CC3)cc2)CC1 [Compound 20, 4-((4-cyclopropylphenyl)sulfonamido)-N—((S)-3,3-dimethylbutan-2-yl)-3-((1S,4R)-4-methoxycyclohexyl)-1-methyl-1H-pyrazole-5-carboxamide] | 100 to 1000 nM | < 100 nM |
| COCc1ncccc1-c1nn(C)c(C(=O)N[C@@H](C)C(C)(C)C)c1NS(=O)(=O)c1ccc(C#N)cc1 [Compound 42, (S)-4-((4-cyanophenyl)sulfonamido)-N-(3,3-dimethylbutan-2-yl)-3-(2-(methoxymethyl)pyridin-3-yl)-1-methyl-1H-pyrazole-5-carboxamide] | > 25000 nM | > 25000 nM |
| CO[C@H]1CC[C@@H](c2nn(C)c(C(=O)N[C@@H](C)C(C)(C)C)c2NS(=O)(=O)c2ccc(C)cc2)CC1 [Compound 6, N—((S)-3,3-dimethylbutan-2-yl)-3-((1s,4R)-4-methoxycyclohexyl)-1-methyl-4-((4-methylphenyl)sulfonamido)-1H-pyrazole-5-carboxamide] | 100 to 1000 nM | < 100 nM |
| C[C@H](NC(=O)c1c(NS(=O)(=O)c2ccc(Cl)cc2)c(-c2ccccc2C(F)F)nn1C)C(C)(C)C [Compound 39, (S)-4-((4-chlorophenyl)sulfonamido)-3-(2-(difluoromethyl)phenyl)-N-(3,3-dimethylbutan-2-yl)-1-methyl-1H-pyrazole-5-carboxamide] | 100 to 1000 nM | 100 to 1000 nM |
| C[C@H](NC(=O)c1c(NS(=O)(=O)c2ccc(Cl)cc2)c(C2CCC(F)(F)CC2)nn1C)C(C)(C)C [Compound 37, (S)-4-((4-chlorophenyl)sulfonamido)-3-(4,4-difluorocyclohexyl)-N-(3,3-dimethylbutan-2-yl)-1-methyl-1H-pyrazole-5-carboxamide] | 100 to 1000 nM | 100 to 1000 nM |
| COC1CC=C(c2nn(C)c(C(=O)N[C@@H](C)C(C)(C)C)c2NS(=O)(=O)c2ccc(Cl)cc2)CC1 (stereo partly drawn) [Compound 22, 4-((4-chlorophenyl)sulfonamido)-N—((S)-3,3-dimethylbutan-2-yl)-3-(4-methoxycyclohex-1-en-1-yl)-1-methyl-1H-pyrazole-5-carboxamide] | 100 to 1000 nM | < 100 nM |
| C[C@H](NC(=O)c1c(NS(=O)(=O)c2ccc(C#N)cc2)c(C2CCOCC2)nn1C)C(C)(C)C [Compound 25, (S)-4-((4-cyanophenyl)sulfonamido)-N-(3,3-dimethylbutan-2-yl)-1-methyl-3-(tetrahydro-2H-pyran-4-yl)-1H-pyrazole-5-carboxamide] | 100 to 1000 nM | 100 to 1000 nM |
| C[C@H](NC(=O)c1c(NS(=O)(=O)c2ccc(Cl)cc2)c(C2CCOCC2)nn1C)C(C)(C)C [Compound 9, (S)-4-((4-chlorophenyl)sulfonamido)-N-(3,3-dimethylbutan-2-yl)-1-methyl-3-(tetrahydro-2H-pyran-4-yl)-1H-pyrazole-5-carboxamide] | 100 to 1000 nM | 100 to 1000 nM |
| CO[C@H]1CC[C@@H](c2nn(C)c(C(=O)N[C@@H](C)C(C)(C)C)c2NS(=O)(=O)c2ccc(C#N)cc2)CC1 [Compound 21, 4-((4-cyanophenyl)sulfonamido)-N—((S)-3,3-dimethylbutan-2-yl)-3-((1S,4R)-4-methoxycyclohexyl)-1-methyl-1H-pyrazole-5-carboxamide] | < 100 nM | < 100 nM |
| C[C@H](NC(=O)c1c(NS(=O)(=O)c2ccc(C#N)cc2)c(-c2ccc(F)cc2F)nn1C)C(C)(C)C [Compound 41, (S)-4-((4-cyanophenyl)sulfonamido)-3-(2,4-difluorophenyl)-N-(3,3-dimethylbutan-2-yl)-1-methyl-1H-pyrazole-5-carboxamide] | 100 to 1000 nM | 100 to 1000 nM |
